Data: patent US20230056135A1, “MONOMER AND MULTIMERIC ANTI-HBV AGENTS” (priority 2018, published 2023)
Where two headings read alike, the source gives them in different places.

Key:
Format in all cases: cell-based
[1] = tested on: HepG2 cells; assay: Cellular toxicity assay in HepG2 cells
Protocol: (§1) The toxicity of the compounds was assessed in Vero, human PBM, CEM (human lymphoblastoid), MT-2, and HepG2 cells, as described previously (see Schinazi R. F., Sommadossi J.-P., Saalmann V., Cannon D. L., Xie M.-Y., Hart G. C., Smith G. A. & Hahn E. F. Antimicrob. Agents Chemother. 1990, 34, 1061-67). Cycloheximide was included as positive cytotoxic control, and untreated cells exposed to solvent were included as negative controls. The cytotoxicity IC50 was obtained from the concentration-response curve using the median effective method described previously (see Chou T.-C. & Talalay P. Adv. Enzyme Regul. 1984, 22, 27-55; Belen'kii M. S. & Schinazi R. F. Antiviral Res. 1994, 25, 1-11).

[2] = tested on: wild type HBV; assay: Anti-HBV assay in AD-38 cell line (HBV in culture supernatant); conditions: AD-38 cell line, Tet (-); for EC50: read-out: Anti-HBV activity EC50; for EC90: read-out: Anti-HBV activity EC90
Protocol: The anti-HBV activity of the compounds was determined by treating the AD-38 cell line carrying wild type HBV under the control of tetracycline (see Ladner S. K., Otto M. J., Barker C. S., Zaifert K., Wang G. H., Guo J. T., Seeger C. & King R. W. Antimicrob. Agents Chemother. 1997, 41, 1715-20). Removal of tetracycline from the medium [Tet (−)] results in the production of HBV. The levels of HBV in the culture supernatant fluids from cells treated with the compounds were compared with that of the untreated controls. Control cultures with tetracycline [Tet (+)] were also maintained to determine the basal levels of HBV expression. 3TC was included as positive control.
The median effective concentrations (EC50) ranges of several of the compounds described herein against HBV are shown in Table 3: […]

[3] = tested on: human PBM; assay: Cellular toxicity assay in human PBM cells
Protocol: as §1

[4] = tested on: CEM (human lymphoblastoid); assay: Cellular toxicity assay in CEM cells
Protocol: as §1

[5] = tested on: Vero; assay: Cellular toxicity assay in Vero cells
Protocol: as §1

[6] = tested on: HBV replication in HepAD38 cells; assay: Drug-drug combination, inhibition of HBV replication in HepAD38 cells
[7] = Cellular toxicity assay in HepG2 cells; conditions: human, HepG2 cells; read-out: Cytotoxicity; CC50 (μM) HepG2
Protocol: as §1

[8] = tested on: Glutathione levels (GSH); assay: Glutathione levels in Huh7 cells (GSH-Glo Glutathione Assay)
Protocol: Glutathione levels (GSH) were measured in Huh7 cells after 22 h treatment with 10 μM CAMs (GSH-Glo™ Glutathione Assay—Promega). Treatment of Huh7 with 10 μM positive control, L-buthionine-sulfoximine, reduced cellular GSH levels by 58% (data not shown); Samples were tested in triplicates.

[9] = Cytotoxicity (rDNA) in HepG2-NTCP infectious system; conditions: human, HepG2-NTCP (Clone 7) cells infected with HBV, day 11, read-out: HBV DNA/rDNA CC50
Protocol: (§2) Antiviral Activity in HepG2-NTCP Infectious System: HepG2-NTCP (Clone 7) cells were pretreated with antivirals for 30 min prior infection for 24 h with stock concentrated virus produced from HepAD38 at a dose of ˜300 virus genome equivalent (VGE) per cell in the presence of media containing 4% polyethylene glycol 8000 (PEG) and 2% DMSO. After 24 h, virus inoculum with or without antiviral agents were washed out from cells and media in the presence of 4% PEG and 2% DMSO, with or without antiviral agents were replenished every two days until day 11. Cells and supernatants were harvested and tested for intracellular HBV DNA, pregenomic (pg) RNA, surface RNA, and secreted HBeAg (ELISA).

[10] = tested on: HBV; assay: Antiviral activity in HepG2-NTCP infectious system; conditions: Hepatitis B virus, 264 h
Protocol: as §2

[11] = Cellular toxicity assay in human PBM cells; conditions: human, human PBM cells; read-out: Cytotoxicity; CC50 (μM) PBM
Protocol: as §1

[12] = HepG2 cells, read-out: Cytotoxicity, CC50 (μM) HepG2
[13] = human PBM cells, read-out: Cytotoxicity, CC50 (μM) PBM
[14] = CEM cells, read-out: Cytotoxicity, CC50 (μM) CEM
[15] = Vero cells, read-out: Cytotoxicity, CC50 (μM) VERO
[16] = read-out: HBV DNA/rDNA EC50 (nM)
[17] = read-out: HBV RNA EC50, nM pgRNA
[18] = read-out: HBV RNA EC50, nM sRNA

SMILES | CC50 [1, 12] [µM] | EC50 [2] [nM] | EC90 [2] [nM] | CC50 [3, 13] [µM] | CC50 [4, 14] [µM] | CC50 [5, 15] [µM] | CC50 [1] [µM] | CC50 [3] [µM] | CC50 [4] [µM] | CC50 [5] [µM] | CC50 at 11 days [9] [nM] | EC50 [10, 16] [nM] | EC50 [10, 17] [nM] | EC50 [10, 18] [nM] | EC50 ([10]; read-out: HBeAg EC50, nM) [nM] | further results
Cc1c(C(=O)C(=O)NCc2cn(CCCCCCCCn3cc(CNC(=O)C(=O)c4c(C)c(C(=O)Nc5ccc(F)c(F)c5)n(C)c4C)nn3)nn2)c(C)n(C)c1C(=O)Nc1ccc(F)c(F)c1 [Compound 9, 4,4′-(2,2′-(((Octane-1,8-diylbis(1H-1,2,3-triazole-1,4-diyl))bis(methylene))bis(azanediyl))bis(2-oxoacetyl))bis(N-(3,4-difluorophenyl)-1,3,5-trimethyl-1H-pyrrole-2-carboxamide)] | > 100 | 100 to 1000 | 1000 to 10000 | 26.4 | > 100 | > 100 |  |  |  |  |  |  |  |  |  | 
CCOC(=O)C1=C(CNCc2cn(CCCCCCCCn3cc(CNC(=O)C(=O)c4c(C)c(C(=O)Nc5ccc(F)c(F)c5)n(C)c4C)nn3)nn2)NC(c2nccs2)=NC1c1ccc(F)cc1Br (stereo not drawn) [Compound 20, Ethyl 4-(2-bromo-4-fluorophenyl)-6-((((1-(8-(4-((2-(5-((3,4-difluorophenyl)-carbamoyl)-1,2,4-trimethyl-1H-pyrrol-3-yl)-2-oxoacelamido)methyl)-1H-1,2,3-triazol-1-yl)octyl)-1H-1,2,3-triazol-4-yl)methyl)amino)methyl)-2-(thiazol-2-yl)-1,4-dihydropyrimidine-5-carboxylate] |  | 10 to 100 | 1000 to 10000 |  |  |  | > 100 | 33 | > 100 | > 100 |  |  |  |  |  | 
O=C(NC(Br)=C(C(=O)N1CCCCC1)c1ccccc1OCCCCCCCCCCCCOc1ccccc1C(C(=O)N1CCCCC1)=C(Br)NC(=O)c1ccc([N+](=O)[O-])cc1)c1ccc([N+](=O)[O-])cc1 [Compound 28] |  | 1000 to 10000 |  |  |  |  | > 100 | > 100 | > 100 | > 100 |  |  |  |  |  | 
Cc1c(C(=O)C(=O)NCc2cn(CCCCCCCCCCCCn3cc(CNC(=O)C(=O)c4c(C)c(C(=O)Nc5ccc(F)c(F)c5)n(C)c4C)nn3)nn2)c(C)n(C)c1C(=O)Nc1ccc(F)c(F)c1 [Compound 53, 4,4′-(2,2′-(((Dodecane-1,12-diylbis(1H-1,2,3-triazole-1,4-diyl))bis(methylene))bis(azanediyl))bis(2-oxoacetyl))bis(N-(3,4-difluorophenyl)-1,3,5-trimethyl-1H-pyrrole-2-carboxamide)] | > 100 | 0.1 to 1 | 10 to 100 | 35 | 45 | > 100 |  |  |  |  |  |  |  |  |  | EC50 ([6]; HepAD38 cells, combinations at ratio 1:1, read-out: EC50): 0.02 nM; EC90 ([6]; HepAD38 cells, combinations at ratio 1:1, read-out: EC90): 5.29 nM
C#CCNC(=O)C(=O)c1c(C)c(C(=O)Nc2ccc(F)c(F)c2)n(CC#C)c1C [Compound 114, N-(3,4-Difluorophenyl)-3,5-dimethyl-4-(2-oxo-2-(prop-2-yn-1-ylamino)acetyl)-1-(prop-2-yn-1-yl)-1H-pyrrole-2-carboxamide] |  |  |  |  |  |  |  |  |  |  | > 1000 | 0.6 | 79.6 | 67.8 | 488 | CC50 [7]: > 100 µM; GSH levels relative to untreated control ([8]; 22 h treatment): > 10 µM; inhibition at 10 µM ([8]; Homo sapiens, Huh-7, read-out: GSH levels relative to untreated control (% inhibition at 10 μM), 22 h, 10 μM): 27%; EC50 ([2]; Hepatitis B virus): 0.1 to 1 nM; CC50 [11]: > 100 µM
C=C1[C@H](CO)[C@@H](O)C[C@@H]1n1cnc2c(=O)[nH]c(N)nc21 [ETV, Entecavir, reference compound] |  |  |  |  |  |  |  |  |  |  | > 1000 | < 1 | > 1000 | > 1000 | > 1000 | EC50 ([6]; Hepatitis B virus, HePAD38): 0.04 nM; EC90 ([6]; Hepatitis B virus, HePAD38): 12.9 nM
